One test concerns LZ+ MYPT1 isoform. In words: Western blot of relative LZ+ MYPT1 isoform expression in vascular smooth muscle after LAD ligation. In kind it is in vivo, rat. Conditions: for LZ+ MYPT1 isoform expression in aorta (in words) / LZ+ MYPT1 isoform expression in iliac artery (in words): captopril 2-8 weeks, prazosin 4 weeks. (In general: Immunoblotting shows a protein as a band on a membrane.)

The test system of test [1] is surgical infarct model of CHF. In words: Transthoracic echocardiography in surgical infarct (LAD ligation) model of CHF. It is filed as in vivo, rat. Conditions: for fractional shortening (FS): 4 weeks after surgery, captopril 100 mg/kg/day or prazosin 2 mg/kg/day, mean±SEM.
Procedure: Adult male Sprague-Dawley rats (Harlan, Indianapolis, Ind.) weighing 400-450 grams were put under general anesthesia by intraperitoneal injection with a mixture (3:3:2) of ketamine (100 mg/mL), xylazine (20 mg/mL), and acepromazine (10 mg/mL). After intubation, the rats were ventilated continuously (room air) using a small animal ventilator (model 683, Harvard Apparatus, Holliston, Mass.). A left lateral thoracotomy incision was made along the 5th intercostal space. After the pericardium was opened, the heart was exteriorized using a retention suture placed at the apex. The left anterior descending coronary artery (LAD) was ligated twice using 6-0 prolene suture (Ethicon, Piscataway, N.J.). After chest closure with running 3-0 vicryl suture (Ethicon), rats were placed in a recovery chamber with a heating pad and a warming light.
Beginning on post-operative day one, rats were allowed to drink ad libitum. One group was fed water with captopril (2 g/L), and another group was fed water alone (Pfeffer et al., Circ. Res., 57:84-95 (1985)). The rats were fed a standard diet of Teklad rodent feed (Harlan) ad libitum and kept on a 12:12 hour light-dark cycle. In both the captopril- and the placebo-treated group, the rats were sacrificed at designated time intervals of 2 weeks and then 4, 6, and 8 weeks after surgery. On average, the rats drank approximately 20 mL of water daily, which corresponded to a dose of 100 mg/kg/day of captopril.
All rats in the placebo- and captopril-treated groups underwent transthoracic echocardiography (Acuson Sequoia C256® Echocardiography System, Siemens Medical Solutions USA, Inc., Malvern, Pa.) at baseline prior to LAD ligation and at 2, 4, 6, and 8 weeks after LAD ligation using 2-D digital loop imaging under conscious sedation with vaporized isoflurane as described previously (Karim et al., Circ. Res., 95:612-18 (2004); Morgan et al., Am. J. Physiol. Heart Circ. Physiol., 287:H2049-H2053 (2004)). […] Both parasternal long and short axis views were obtained using a 13-MHz linear array transducer. Digital calipers were used to measure end systolic dimension (ESD) and end diastolic dimension (EDD). Cardiac function was estimated using fractional shortening (FS) obtained from the EDD and ESD in the parasternal long axis view and calculated as FS=((EDD−ESD)/EDD)×100%.
The echocardiographic data were reported as mean±SEM.

With `C[C@H](CS)C(=O)N1CCC[C@H]1C(=O)O` [captopril], in the test on LZ+ MYPT1 isoform (infarct rats, aorta), the “LZ+ MYPT1 isoform expression in aorta (in words)” value is listed as “preserved at the uninfarcted control level”. Also, in the test with LZ+ MYPT1 isoform (infarct rats, iliac artery), the “LZ+ MYPT1 isoform expression in iliac artery (in words)” value is “preserved at the level of the uninfarcted control smooth muscle”. Moreover, the “LZ+ MYPT1 isoform expression in portal vein (in words)” value in the test with LZ+ MYPT1 isoform (infarct rats, portal vein, all time intervals) is given as “remained low”. The “effect on fractional shortening / left ventricular function (LVF)” value in test [1] (infarct rats versus placebo, captopril as early as 2 weeks post-infarction, prazosin at 4 weeks) was “attenuated the fall in FS and improved left ventricular function”. In addition, in test [1] (infarct rats), the “fractional shortening (FS)” value was found to be 45±1%. Also, the “end systolic dimension (ESD) compared to placebo” value in test [1] (infarct rats, all time-points (2, 4, 6, 8 weeks), P<0.05) is listed as “reduced the ESD”.

`COc1cc2nc(N3CCN(C(=O)c4ccco4)CC3)nc(N)c2cc1OC` [prazosin]: the “LZ+ MYPT1 isoform expression in the aorta (fall versus uninfarcted control)” value with LZ+ MYPT1 isoform (aorta, 4 weeks after infarction, placebo 44±1%, P<0.05) is listed as 68±1%. For the same compound, the “LZ+ MYPT1 isoform expression in the iliac artery (fall versus uninfarcted control)” value in the test on LZ+ MYPT1 isoform (iliac artery, 4 weeks after infarction, placebo 52±2%, P=0.87) is 54±2%. Moreover, the “LZ+ MYPT1 isoform expression in aorta (in words)” value with LZ+ MYPT1 isoform (infarct rats, aorta) was “did not prevent the fall”. Further, the “LZ+ MYPT1 isoform expression in iliac artery (in words)” value with LZ+ MYPT1 isoform (infarct rats, iliac artery) is reported as “did not prevent the fall”. In addition, in test [1] (infarct rats), the “fractional shortening (FS)” value was 38±2%.

Values taken from patent US9012454B2, “Sexual dysfunction” (Mayo Foundation for Medical Education and Research, priority 2005, dated 2015).
